In PubChem BioAssay (NCI):
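96-well plates; 48 h exposure; 5 concentrations. Endpoints by linear interpolation between flanking doses. Not reached: highest tested concentration assigned. At the GI50, growth is halved. The concentration for full growth arrest is given as TGI.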

Key:
Assay in all cases: NCI-60 cell line screen, 48 h
[1] = test system: KM20L2 colon
[2] = test system: DMS 114 small cell lung
[3] = test system: NCI-H23 lung
[4] = test system: KM12 colon
[5] = test system: SF-268 CNS
[6] = test system: LOX IMVI melanoma
[7] = test system: LXFL 529 NSCLC
[8] = test system: RXF 393 renal
[9] = test system: ACHN renal
[10] = test system: HOP-62 NSCLC
[11] = test system: SNB-78 CNS
[12] = test system: UACC-257 melanoma
[13] = test system: 786-0 renal
[14] = test system: RPMI-8226 leukemia
[15] = test system: SW-620 colon
[16] = test system: SNB-75 CNS
[17] = test system: HCT-116 colon
[18] = test system: COLO 205 colon
[19] = test system: SK-OV-3 ovarian
[20] = test system: HCT-15 colon
[21] = test system: MOLT-4 leukemia
[22] = test system: M14 melanoma
[23] = test system: SK-MEL-28 melanoma
[24] = test system: OVCAR-3 ovarian
[25] = test system: SF-539 CNS
[26] = test system: DLD-1 colon
[27] = test system: SR leukemia
[28] = test system: IGROV1 ovarian
[29] = test system: HT29 colon
[30] = test system: UACC-62 melanoma
[31] = test system: U251 CNS
[32] = test system: M19-MEL melanoma
[33] = test system: SN12C renal
[34] = test system: OVCAR-8 ovarian
[35] = test system: OVCAR-5 ovarian
[36] = test system: HCC-2998 colon
[37] = test system: UO-31 renal
[38] = test system: CCRF-CEM leukemia
[39] = test system: SK-MEL-5 melanoma
[40] = test system: SF-295 CNS
[41] = test system: DMS 273 small cell lung
[42] = test system: EKVX NSCLC
[43] = test system: NCI-H226 lung
[44] = test system: OVCAR-4 ovarian
[45] = test system: A549 NSCLC
[46] = test system: SNB-19 CNS
[47] = test system: NCI-H460 lung
[48] = test system: TK-10 renal

In the case of CC(=O)[O-].CC(=O)[O-].CC(=O)[O-].CC(=O)[O-].CO.CO.CO.[Rh+2].[Rh+2].c1ccc(-c2ccccn2)nc1, the GI50 [1] is reported as greater than 100 µM, the TGI [1] is reported as greater than 100 µM and the GI50 [2] is reported as 62.2 µM. It also gave a TGI [2] greater than 100 µM, a GI50 [3] greater than 100 µM and a TGI [3] greater than 100 µM. It also gave a GI50 [4] greater than 100 µM, a TGI [4] greater than 100 µM and a GI50 [5] greater than 100 µM. For the same molecule, the TGI [5] was greater than 100 µM, the GI50 [6] was greater than 100 µM and the TGI [6] was greater than 100 µM. For the same molecule, the GI50 [7] was 55.6 µM, the TGI [7] was greater than 100 µM and the GI50 [8] was greater than 100 µM. For the same molecule, the TGI [8] was greater than 100 µM, the GI50 [9] was greater than 100 µM and the TGI [9] was greater than 100 µM. For the same molecule, the GI50 [10] was greater than 100 µM, the TGI [10] was greater than 100 µM and the GI50 [11] was greater than 100 µM. The TGI [11] was greater than 100 µM, the GI50 [12] was greater than 100 µM and the TGI [12] was greater than 100 µM. The GI50 [13] was greater than 100 µM, the TGI [13] was greater than 100 µM and the GI50 [14] was greater than 100 µM. It also gave a TGI [14] greater than 100 µM, a GI50 [15] greater than 100 µM and a TGI [15] greater than 100 µM. For the same molecule, the GI50 [16] was greater than 100 µM, the TGI [16] was greater than 100 µM and the GI50 [17] was greater than 100 µM. For the same molecule, the TGI [17] was greater than 100 µM, the GI50 [18] was greater than 100 µM and the TGI [18] was greater than 100 µM. For the same molecule, the GI50 [19] was greater than 100 µM, the TGI [19] was greater than 100 µM and the GI50 [20] was greater than 100 µM. The TGI [20] was greater than 100 µM, the GI50 [21] was greater than 100 µM and the TGI [21] was greater than 100 µM. For the same molecule, the GI50 [22] was greater than 100 µM, the TGI [22] was greater than 100 µM and the GI50 [23] was greater than 100 µM. It also gave a TGI [23] greater than 100 µM, a GI50 [24] greater than 100 µM and a TGI [24] greater than 100 µM. It also gave a GI50 [25] greater than 100 µM, a TGI [25] greater than 100 µM and a GI50 [26] greater than 100 µM. For the same molecule, the TGI [26] was greater than 100 µM, the GI50 [27] was greater than 100 µM and the TGI [27] was greater than 100 µM. The GI50 [28] was greater than 100 µM, the TGI [28] was greater than 100 µM and the GI50 [29] was greater than 100 µM. The TGI [29] was greater than 100 µM, the GI50 [30] was greater than 100 µM and the TGI [30] was greater than 100 µM. The GI50 [31] was greater than 100 µM, the TGI [31] was greater than 100 µM and the GI50 [32] was greater than 100 µM. The TGI [32] was greater than 100 µM, the GI50 [33] was greater than 100 µM and the TGI [33] was greater than 100 µM. The GI50 [34] was greater than 100 µM, the TGI [34] was greater than 100 µM and the GI50 [35] was greater than 100 µM. For the same molecule, the TGI [35] was greater than 100 µM, the GI50 [36] was greater than 100 µM and the TGI [36] was greater than 100 µM. The GI50 [37] was greater than 100 µM, the TGI [37] was greater than 100 µM and the GI50 [38] was 44.6 µM. It also gave a TGI [38] greater than 100 µM, a GI50 [39] greater than 100 µM and a TGI [39] greater than 100 µM. The GI50 [40] was greater than 100 µM, the TGI [40] was greater than 100 µM and the GI50 [41] was greater than 100 µM. The TGI [41] was greater than 100 µM, the GI50 [42] was greater than 100 µM and the TGI [42] was greater than 100 µM. The GI50 [43] was greater than 100 µM, the TGI [43] was greater than 100 µM and the GI50 [44] was greater than 100 µM. The TGI [44] was greater than 100 µM, the GI50 [45] was greater than 100 µM and the TGI [45] was greater than 100 µM. The GI50 [46] was greater than 100 µM, the TGI [46] was greater than 100 µM and the GI50 [47] was greater than 100 µM. For the same molecule, the TGI [47] was greater than 100 µM, the GI50 [48] was greater than 100 µM and the TGI [48] was greater than 100 µM.
